Assay in all cases: NCI-60 cell line screen, 48 h
Assay [1] concerns A549 NSCLC.
For assay [2], the system named is EKVX NSCLC.
For assay [3], the system named is HCT-116 colon.
For assay [4], the system named is NCI-H226 lung.
Assay [5] has as its system NCI-H522 lung.
The test system of assay [6] is SF-295 CNS.
The subject of assay [7] is SK-MEL-5 melanoma.
For assay [8], the system named is SW-620 colon.
Assay [9] concerns BT-549 breast.
The test system of assay [10] is DU-145 prostate.

SMILES strings stand for the structures.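 Growth conditions: 96-well plates. Treatment: test compound, 48 hours, 5 concentrations. Analysis: linear interpolation between bracketing concentrations; unreached endpoints set to highest concentration. At the GI50, growth is halved. TGI denotes the concentration required for complete inhibition of growth.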 A value given as a limit tells only on which side of the number the result lay.

In the case of `CCOC(=O)C/C(N)=C(\C#N)C(=O)OCC`, the TGI in assay [1], in [2], in assay [3], in assay [4], in assay [5] and in [6] was > 100 µM each time. The TGI in assay [7] and in assay [8] was > 100 µM each time.

For `COC(=O)CSc1n[nH]c(-c2ccccc2)n1`, the TGI in assay [1], in [2], in assay [3], in [4], in [5] and in assay [6] was > 100 µM in each case. For the same compound, the TGI in assay [7] and in [8] was > 100 µM throughout.

As for `COc1ccc(/C=c2\sc3nnc(CCC(=O)Nc4cccc(C(F)(F)F)c4)n3c2=O)cc1`, the TGI in assay [1], in assay [2], in assay [3], in [4], in assay [6] and in [7] was > 100 µM throughout. In assay [8], the TGI was > 100 µM.

Regarding `COc1ccc2oc(-c3cc4cc(OC)ccc4o3)cc2c1`, the TGI in [1], in assay [2], in [5], in assay [6], in [7] and in [8] was > 100 µM throughout.

With `COc1cc(C2CC(=O)c3c(C)nn(-c4nc5ccccc5[nH]4)c3C2)cc(OC)c1OC` (stereo not given), the GI50 in assay [9] was 76.6 µM; in assay [10] it was > 100 µM; in assay [3], 7.39 µM; in assay [5], 2.64 µM; in assay [7] it was > 100 µM; in assay [8], > 100 µM. Besides, the TGI in assay [9], in [10], in [3], in assay [5], in [7] and in assay [8] was > 100 µM each time.

Take `CCOc1ccc(/C=N\N2C(=O)c3ccccc3C2=O)cc1`: the TGI in [1], in assay [2], in [3], in [4], in assay [6] and in assay [7] was > 100 µM each time. For the same compound, the TGI in assay [8] was > 100 µM.

As to `Cc1ccc(NC(C(=O)c2ccccc2)c2ccccc2)cc1` (stereo not given), the GI50 in [1] is 4.08 µM; in assay [10], 3.18 µM; in assay [2], 1 µM; in assay [3] it was 2.04 µM; in assay [4] it was 18 µM; in assay [6] it was 2380 nM. Further, the GI50 in [7] was 2.84 µM; in [8], 3.47 µM. Also, the TGI is > 100 µM in assay [1]; 15.4 µM in assay [10]; 6 µM in assay [2]; 12.4 µM in assay [3]; > 100 µM in assay [4]; 8.71 µM in assay [6]. Further, the values for the TGI in assay [7] and in assay [8] were 14.5 µM and > 100 µM, respectively.

On to `O=c1[nH]cc(CO)c(=O)[nH]1`, for which the GI50 in [1] is > 100 µM; in assay [9], > 100 µM; in assay [3], > 100 µM; in assay [5], > 100 µM; in [6] it was > 100000 nM; in assay [7], > 100 µM. Moreover, the GI50 in [8] was > 100 µM. For the same compound, the TGI in assay [1], in [9], in [3], in [5], in assay [6] and in assay [7] was > 100 µM throughout. The TGI in assay [8] is > 100 µM.

For the compound `CN=c1ss/c(=N\C(=S)N(C)C)n1C1CCCCC1`, the TGI in assay [1] is > 31.6 µM; in assay [2], > 31.6 µM; in assay [3] it was > 10 µM; in assay [4], > 31.6 µM; in [5], > 31.6 µM; in [6], > 31.6 µM. In addition, the TGI in assay [7] and in assay [8] was > 31.6 µM throughout.

`COc1cc(-c2ccccc2)c(OC)cc1CCl`: the TGI in assay [1], in assay [2], in [3], in assay [4], in [5] and in assay [6] was > 100 µM throughout. Further, the TGI in assay [7] and in assay [8] was > 100 µM each time.

As for `Cc1cc(C(=O)N2CCN(C)CC2)c2c(=O)n(-c3ccccc3)c(=O)n(CC(O)CN3CCN(c4ncccn4)CC3)c2n1` (stereo not given), the GI50 was > 100 µM in assay [10]; > 100 µM in assay [2]; > 100 µM in [3]; > 100 µM in assay [4]; > 100 µM in [5]; > 100000 nM in assay [6]. Further, the GI50 in assay [7] and in assay [8] was > 100 µM throughout. Besides, the TGI in assay [10], in [2], in [3], in assay [4], in assay [5] and in assay [6] was > 100 µM each time. In addition, the TGI in assay [7] and in [8] was > 100 µM throughout.

Consider `CC(C)(C)c1cc(Oc2ccc(C#N)c(C#N)c2)cc(C(C)(C)C)c1`, for which the TGI in assay [1], in assay [2], in assay [3], in assay [4], in assay [5] and in assay [6] was > 100 µM throughout. In addition, the TGI in assay [7] is > 100 µM.

In the case of `CN(C(=O)C12C3C4C1C1C2C3C41C(=O)N(C)C(C)(C)C)C(C)(C)C` (stereo not given), the TGI in [1], in [2], in assay [3], in assay [5], in [6] and in assay [7] was > 50 µM each time. Further, the TGI in assay [8] was > 50 µM.

Regarding `Cc1ccc(C)c(NC(=O)C(=O)CC(=O)c2cccc3ccccc23)c1`, the TGI in assay [1], in [2], in [3], in [4], in [5] and in [6] was > 100 µM each time. Also, the TGI in assay [7] and in assay [8] was > 100 µM each time.

With `O=[N+]([O-])c1ccc(Oc2cccc(C(F)(F)F)c2)c([N+](=O)[O-])c1`, the GI50 in [1] is 4.56 µM; in assay [10], 2.33 µM; in assay [2], 7.11 µM; in assay [3] it was 1.24 µM; in assay [4], 2.11 µM; in [5] it was 2.11 µM. For the same compound, the GI50 in [6] was 2870 nM; in [7] it was 2.53 µM; in assay [8], 0.451 µM. Further, the TGI in [1] is 16.5 µM; in assay [10] it was 5.38 µM; in assay [2] it was 22.5 µM; in assay [3] it was 12.7 µM; in assay [4], 5.92 µM; in assay [5] it was 5.7 µM. In addition, the TGI in assay [6] was 11.3 µM; in assay [7], 7.72 µM; in assay [8], 10.1 µM.

For the compound `CC(C)(C)C1CCP(=O)(c2ccccc2)CC1` (stereo not given), the TGI in [1], in assay [2], in assay [3], in assay [4], in [5] and in assay [6] was > 100 µM each time. The TGI in assay [7] and in assay [8] was > 100 µM throughout.

As for `COC(=O)[C@H]1CC(=O)C=C2CCCC21` (stereo not given in full), the TGI in assay [1], in [2], in [3], in [5], in assay [6] and in assay [7] was > 100 µM each time. Further, the TGI in assay [8] is > 100 µM.

Turning to `O=C(O)/C(=C/c1ccccc1[N+](=O)[O-])c1cccs1`, the TGI in assay [1], in assay [2], in [3], in [4], in [5] and in assay [6] was > 100 µM in each case. The TGI in assay [7] and in assay [8] was > 100 µM each time.

On to `CC1=C(C(=O)Nc2cccc(C(F)(F)F)c2)C(c2ccccc2F)C(C(=O)Nc2cccc(C(F)(F)F)c2)=C(C)N1`, for which the TGI came to 19.7 µM in [1]; 17.5 µM in [2]; 13.5 µM in assay [3]; 18.4 µM in [4]; 17.5 µM in [5]; 20.3 µM in assay [6]. Also, the TGI in assay [7] is 18 µM; in [8], 22.7 µM.

In the case of `CC(=O)n1cc(CC(C)O)c(=O)[nH]c1=O` (stereo not given), the TGI in assay [1], in [2], in assay [3], in [4], in assay [5] and in assay [6] was > 100 µM throughout. For the same compound, the TGI in [7] and in assay [8] was > 100 µM each time.

In the case of `O=C(O)CC1C(=O)OC2C3COC(=O)c4cc(O)c(O)c(O)c4-c4c(cc(O)c(O)c4O)C(=O)OC2C(OC(=O)c2cc(O)c(O)c4c2C1C(O)C(=O)O4)C(OC(=O)c1cc(O)c(O)c(O)c1)O3` (stereo not given), the TGI in assay [1] was > 100 µM; in [10], > 100 µM; in [2], 66.8 µM; in [3] it was 27.8 µM; in assay [4] it was > 100 µM; in assay [5], 46.6 µM. In addition, the TGI in assay [6], in [7] and in [8] was > 100 µM each time.

For the compound `NC(=O)c1ccccc1NC(=O)C(=O)Nc1n[nH]c(N)n1`, the TGI in assay [1], in assay [2], in assay [3], in assay [4], in assay [5] and in assay [6] was > 100 µM throughout. Further, the TGI in [7] and in [8] was > 100 µM throughout.

For `Cc1nn2c(=O)n(-c3cccc(-n4nnc5c(-c6ccccc6)c(C)nn5c4=O)c3C)nnc2c1-c1ccccc1`, the TGI is > 100 µM in assay [1]; > 100 µM in assay [2]; 30.4 µM in assay [3]; > 100 µM in assay [4]; 33.2 µM in assay [5]; > 100 µM in assay [6]. Besides, the TGI was found to be 33.8 µM in assay [7] and 48.4 µM in assay [8].

With `Cc1ccc(SC2C(C)(C)N(C(C)C)P2(=O)N(C(C)C)C(C)C)cc1` (stereo not given), the TGI in assay [1] was > 70.8 µM; in [2] it was 97.3 µM; in assay [3] it was > 63.4 µM; in [4] it was > 100 µM; in assay [5], > 74.2 µM; in assay [6] it was > 100 µM. The results for the TGI in assay [7] and in [8] were > 100 µM and > 50 µM, respectively.

As for `Cc1ccc(S(=O)(=O)Nc2cccc(C)c2C)cc1`, the TGI in assay [1], in assay [2], in assay [3], in [4], in [6] and in assay [7] was > 100 µM throughout. Moreover, in [8], the TGI is > 100 µM.

Regarding `O=S1c2ccccc2N=C(c2ccc3ccccc3c2)CC1c1ccccc1F` (stereo not given), the TGI in assay [1], in assay [2], in assay [4], in assay [5], in [6] and in assay [7] was > 100 µM each time. The TGI in [8] is > 100 µM.

On to `CC(N)CN.CC(N)CN.[Cl-].[O]=[Os+2]=[O]` (stereo not given), for which the GI50 in assay [1] is > 100 µM; in [2], > 100 µM; in [3], 36.5 µM; in [4] it was > 100 µM; in assay [5], 30.9 µM; in assay [6] it was > 100000 nM. In addition, the GI50 in [7] was 97.2 µM; in [8] it was 69 µM. Also, the TGI in assay [1], in assay [2], in [3], in assay [4], in [5] and in assay [6] was > 100 µM in each case. For the same compound, the TGI in [7] and in [8] was > 100 µM in each case.

Take `CC(C)(C)C1CCC(CI)(N=[N+]=[N-])CC1` (stereo not given): the TGI in assay [1], in assay [2], in [3], in [4], in [5] and in assay [6] was > 100 µM in each case. Besides, the TGI in assay [7] and in assay [8] was > 100 µM each time.
